Measurements reported in ChEMBL document CHEMBL1201862, “PubChem BioAssay data set” (2004).
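Five concentrations, 48 hours, 96-well plates. Abbreviation: GI50, concentration required for 50% inhibition of growth.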 Active and inactive are the calls of the source. Rule as the data show it: active = GI50 up to about 1.1 µM and inactive = higher.

Tests used:
Assay in all cases: inhibition of tumour cell growth, NCI panel, 48 h
[1] = tested on: OVCAR-3
[2] = tested on: 786-0
[3] = tested on: SNB-19
[4] = tested on: HOP-62
[5] = tested on: HT-29
[6] = tested on: M14
[7] = tested on: HL-60
[8] = tested on: RPMI-8226
[9] = tested on: UO-31
[10] = tested on: MCF7
[11] = tested on: TK-10
[12] = tested on: Malme-3M
[13] = tested on: SR
[14] = tested on: NCI-H460
[15] = tested on: NCI/ADR-RES
[16] = tested on: CCRF-CEM
[17] = tested on: SK-OV-3
[18] = tested on: UACC-62
[19] = tested on: COLO 205
[20] = tested on: IGROV-1

| Compound | GI50 [1] | GI50 [2] | GI50 [3] | GI50 [4] | GI50 [5] | GI50 [6] | GI50 [7] | GI50 [8] | GI50 [9] | GI50 [10] | GI50 [11] | GI50 [12] | GI50 [13] | GI50 [14] | GI50 [15] | GI50 [16] | GI50 [17] | GI50 [18] | GI50 [19] | GI50 [20] |
| --- | --- | --- | --- | --- | --- | --- | --- | --- | --- | --- | --- | --- | --- | --- | --- | --- | --- | --- | --- | --- |
| COc1ccc(NC(=O)N(C)CC2(O)CCC(C(C)(C)C)CC2)cc1 (stereo not drawn) | 23 µM (inactive) | > 100 µM (inactive) | > 100 µM (inactive) | > 100 µM (inactive) | 32.5 µM (inactive) | > 100 µM (inactive) | 63.5 µM (inactive) | 21 µM (inactive) | 30.6 µM (inactive) | 19.4 µM (inactive) | 37 µM (inactive) | 24.8 µM (inactive) | > 100 µM (inactive) | 59.6 µM (inactive) | 54.5 µM (inactive) | 42.5 µM (inactive) | 80.9 µM (inactive) | 35.5 µM (inactive) | 36.1 µM (inactive) | > 100 µM (inactive) |
| CC(=O)O[C@H]1CC[C@@]2(C)C(=CC[C@@H]3[C@@H]2CC[C@](C)(c2nnc(C)o2)[C@H]3CC#N)C1 | > 100 µM (inactive) | > 100 µM (inactive) | > 100 µM (inactive) | > 100 µM (inactive) | > 100 µM (inactive) | > 100 µM (inactive) | 61.9 µM (inactive) | > 100 µM (inactive) | > 100 µM (inactive) | > 100 µM (inactive) | > 100 µM (inactive) | > 100 µM (inactive) | > 100 µM (inactive) | – | > 100 µM (inactive) | > 100 µM (inactive) | > 100 µM (inactive) | > 100 µM (inactive) | > 100 µM (inactive) | > 100 µM (inactive) |
| C#C[C@]1(O)CC[C@H]2[C@@H]3CCC4=C/C(=N/NC(=O)c5cccc6c(=O)c7ccccc7[nH]c56)CCC4[C@H]3CC[C@@]21C (stereo partly drawn) | 32.3 µM (inactive) | 35.6 µM (inactive) | 86.3 µM (inactive) | > 100 µM (inactive) | 30.3 µM (inactive) | 59.8 µM (inactive) | 26.4 µM (inactive) | 28.8 µM (inactive) | 20.5 µM (inactive) | 43.4 µM (inactive) | 57.5 µM (inactive) | 18 µM (inactive) | 28.4 µM (inactive) | – | 55.5 µM (inactive) | 40.3 µM (inactive) | > 100 µM (inactive) | 30.8 µM (inactive) | 70 µM (inactive) | 82.2 µM (inactive) |
| CCOC(=O)c1ccc(C(=O)/C(C(C)=O)=C2\CCCN2C)n1C | 99.8 µM (inactive) | > 100 µM (inactive) | 73.3 µM (inactive) | 57.9 µM (inactive) | – | > 100 µM (inactive) | 18.5 µM (inactive) | 61.2 µM (inactive) | > 100 µM (inactive) | 61.7 µM (inactive) | > 100 µM (inactive) | > 100 µM (inactive) | 28.9 µM (inactive) | > 100 µM (inactive) | 83.8 µM (inactive) | 52.5 µM (inactive) | 30.7 µM (inactive) | 49.1 µM (inactive) | > 100 µM (inactive) | > 100 µM (inactive) |
| O=C(/C=C/C=C/c1ccccc1)CCc1ccccc1 | > 100 µM (inactive) | > 100 µM (inactive) | 62.1 µM (inactive) | > 100 µM (inactive) | 69.7 µM (inactive) | > 100 µM (inactive) | 23.4 µM (inactive) | > 10 µM (inactive) | 90.6 µM (inactive) | > 100 µM (inactive) | > 100 µM (inactive) | > 100 µM (inactive) | 20.3 µM (inactive) | – | 68.5 µM (inactive) | 35.2 µM (inactive) | > 100 µM (inactive) | > 100 µM (inactive) | > 100 µM (inactive) | > 100 µM (inactive) |
| C#CCOC(=O)c1ccccc1OC(C)=O | – | > 100 µM (inactive) | > 100 µM (inactive) | > 100 µM (inactive) | – | > 100 µM (inactive) | > 100 µM (inactive) | > 100 µM (inactive) | > 100 µM (inactive) | > 100 µM (inactive) | > 100 µM (inactive) | – | > 100 µM (inactive) | > 100 µM (inactive) | > 100 µM (inactive) | > 100 µM (inactive) | > 100 µM (inactive) | > 100 µM (inactive) | > 100 µM (inactive) | > 100 µM (inactive) |
| COc1ccccc1Cc1ccc(C2C=CC3(CC(=O)C=C3C)C(=O)C2)o1 (stereo not drawn) | 10.2 µM (inactive) | 20.2 µM (inactive) | 47.2 µM (inactive) | 15 µM (inactive) | 35.3 µM (inactive) | 32.1 µM (inactive) | 17.7 µM (inactive) | 17.4 µM (inactive) | 29.1 µM (inactive) | 17.1 µM (inactive) | 39.5 µM (inactive) | 17.9 µM (inactive) | 18.4 µM (inactive) | 30.5 µM (inactive) | 24.7 µM (inactive) | – | – | 13.9 µM (inactive) | 23.2 µM (inactive) | 29.2 µM (inactive) |
| Cc1csc(NCc2ccc(Cl)cc2)n1 | 44.7 µM (inactive) | 61.4 µM (inactive) | 75.2 µM (inactive) | > 100 µM (inactive) | 47.1 µM (inactive) | 45.7 µM (inactive) | 33.1 µM (inactive) | 44 µM (inactive) | 37.4 µM (inactive) | 43.3 µM (inactive) | > 100 µM (inactive) | 45.1 µM (inactive) | 36.1 µM (inactive) | – | 46.6 µM (inactive) | 39.1 µM (inactive) | > 100 µM (inactive) | – | 24.1 µM (inactive) | 45.9 µM (inactive) |
| CCOC(OCC)N1C(=O)C2(C(OCC)OCC)CC3C(OC(=O)N3N)c3cccc1c32 (stereo not drawn) | > 100 µM (inactive) | > 100 µM (inactive) | > 100 µM (inactive) | > 100 µM (inactive) | > 100 µM (inactive) | – | > 100 µM (inactive) | > 100 µM (inactive) | > 100 µM (inactive) | > 100 µM (inactive) | > 100 µM (inactive) | > 100 µM (inactive) | > 100 µM (inactive) | > 100 µM (inactive) | > 100 µM (inactive) | 54.2 µM (inactive) | > 100 µM (inactive) | > 100 µM (inactive) | > 100 µM (inactive) | > 100 µM (inactive) |
| CC12OC(=O)[C@@]3(O)CCC4C(C[C@H]5O[C@]56CC=CC(=O)[C@]46C)C45OC[C@H]6C(=O)O[C@@H]1C[C@@]6(C)[C@H](C4=O)C23O5 (stereo partly drawn) | 0.676 µM (active) | 0.659 µM (active) | 3.85 µM (inactive) | 2.57 µM (inactive) | 2.11 µM (inactive) | 1.57 µM (inactive) | 0.121 µM (active) | 0.308 µM (active) | – | 0.578 µM (active) | 1 µM (active) | 1.36 µM (inactive) | 0.392 µM (active) | 1.94 µM (inactive) | 8.51 µM (inactive) | 0.233 µM (active) | 5.53 µM (inactive) | 0.971 µM (active) | 0.601 µM (active) | 1.24 µM (inactive) |
| COc1ccc(C2C(C#N)=C(S)N(C3OC(CO)C(O)C(O)C3O)C(c3ccccc3)=C2C(C)=O)cc1 (stereo not drawn) | 22.2 µM (inactive) | 67.3 µM (inactive) | 89.3 µM (inactive) | 67.1 µM (inactive) | 46.1 µM (inactive) | 65 µM (inactive) | 39.7 µM (inactive) | 51.3 µM (inactive) | > 100 µM (inactive) | 72.1 µM (inactive) | > 100 µM (inactive) | 70.6 µM (inactive) | 40.3 µM (inactive) | 88.1 µM (inactive) | > 100 µM (inactive) | 63.1 µM (inactive) | – | 58.6 µM (inactive) | > 100 µM (inactive) | > 100 µM (inactive) |
| O=C(Nc1ccc2cc3ccccc3cc2c1)c1cc2c(cc1Cl)Sc1nccn1S2(=O)=O | > 100 µM (inactive) | 4.73 µM (inactive) | 25.1 µM (inactive) | 59.6 µM (inactive) | 18.9 µM (inactive) | 42.7 µM (inactive) | 17.7 µM (inactive) | > 100 µM (inactive) | 68.5 µM (inactive) | > 100 µM (inactive) | 16 µM (inactive) | 19.5 µM (inactive) | 35.2 µM (inactive) | 28.7 µM (inactive) | > 100 µM (inactive) | – | > 100 µM (inactive) | 64.9 µM (inactive) | 87.3 µM (inactive) | 15.9 µM (inactive) |
| COc1cc(C=O)cc(/C=N/c2ccccn2)c1O | 19.8 µM (inactive) | 7.36 µM (inactive) | 17.4 µM (inactive) | 16 µM (inactive) | 11.5 µM (inactive) | 6.87 µM (inactive) | 33.4 µM (inactive) | 4.85 µM (inactive) | 3.34 µM (inactive) | 52.1 µM (inactive) | 79.4 µM (inactive) | 2.47 µM (inactive) | 2.18 µM (inactive) | 19.5 µM (inactive) | 10.8 µM (inactive) | 4.67 µM (inactive) | 4.98 µM (inactive) | 30 µM (inactive) | 7.08 µM (inactive) | – |
| COc1ccc(/N=N/c2c(C)c(C#N)c(=S)n(C3OC(CO)C(O)C(O)C3O)c2C)cc1 (stereo not drawn) | 34.4 µM (inactive) | 44.2 µM (inactive) | 38.3 µM (inactive) | 42.3 µM (inactive) | 37.9 µM (inactive) | 26.7 µM (inactive) | 38.3 µM (inactive) | 39.2 µM (inactive) | 41.9 µM (inactive) | 33 µM (inactive) | 82 µM (inactive) | – | 23.4 µM (inactive) | 35 µM (inactive) | > 100 µM (inactive) | 23.7 µM (inactive) | > 100 µM (inactive) | 30.4 µM (inactive) | 58.3 µM (inactive) | 54.1 µM (inactive) |
